The values below come from publication PMC4422947 (Acta Pharmacologica Sinica, 2015).

Series [1] is classed as in vivo, rat. The following applies: after iv or po administration of tanshinol; data not shown.
The target of another series is T1, CYP2A6 (Homo sapiens, UniProt P11509).
T1 sequence (P11509 1-494): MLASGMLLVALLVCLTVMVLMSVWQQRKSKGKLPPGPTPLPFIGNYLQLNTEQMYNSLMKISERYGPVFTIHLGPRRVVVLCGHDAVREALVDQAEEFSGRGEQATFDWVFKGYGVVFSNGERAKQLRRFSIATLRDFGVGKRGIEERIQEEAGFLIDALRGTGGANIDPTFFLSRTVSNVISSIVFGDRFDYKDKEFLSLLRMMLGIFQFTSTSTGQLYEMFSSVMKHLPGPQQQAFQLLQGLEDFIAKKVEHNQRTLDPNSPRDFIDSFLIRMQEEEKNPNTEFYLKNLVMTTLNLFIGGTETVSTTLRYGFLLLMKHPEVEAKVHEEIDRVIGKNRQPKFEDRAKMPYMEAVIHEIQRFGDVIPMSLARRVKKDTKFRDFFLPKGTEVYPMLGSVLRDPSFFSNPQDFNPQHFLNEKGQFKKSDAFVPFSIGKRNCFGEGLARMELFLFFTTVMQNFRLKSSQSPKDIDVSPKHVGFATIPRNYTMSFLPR
Kind of series: Inhibition of cDNA-expressed human CYP2A6. The class given is in vitro ADME. The following applies: CYP2A6, coumarin 7-hydroxylation.

The next series deals with T2, CYP2B6 (Homo sapiens, UniProt P20813).
T2 sequence (P20813 1-491): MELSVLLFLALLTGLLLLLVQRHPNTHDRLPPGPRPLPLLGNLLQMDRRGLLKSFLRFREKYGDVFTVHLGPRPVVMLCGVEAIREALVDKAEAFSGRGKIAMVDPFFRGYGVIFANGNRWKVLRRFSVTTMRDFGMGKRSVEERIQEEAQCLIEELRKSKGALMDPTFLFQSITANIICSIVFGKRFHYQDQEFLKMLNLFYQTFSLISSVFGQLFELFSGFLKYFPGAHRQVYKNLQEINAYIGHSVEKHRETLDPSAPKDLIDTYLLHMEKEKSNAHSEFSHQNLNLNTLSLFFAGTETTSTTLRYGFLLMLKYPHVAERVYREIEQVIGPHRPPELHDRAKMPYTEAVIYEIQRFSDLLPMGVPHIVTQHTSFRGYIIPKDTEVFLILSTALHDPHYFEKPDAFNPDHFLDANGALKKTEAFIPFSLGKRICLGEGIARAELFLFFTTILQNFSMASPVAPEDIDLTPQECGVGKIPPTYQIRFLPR
Kind of series: Inhibition of cDNA-expressed human CYP2B6. In kind it is in vitro ADME. The following applies: CYP2B6, 7-ethoxy-4-trifluoromethylcoumarin O-deethylation.

Consider `COC(=O)C(O)Cc1ccc(O)c(O)c1` (stereo not shown) [tanshinol methyl ester], for which the “Detection in rat samples” value in series [1] was “not detected”.

As to 8-O-methyltanshinol, the “Detection in rat samples” value in series [1] is “not detected”.

Broadly, the IC50 is the concentration at which inhibition is half-maximal. With `N[C@@H]1C[C@H]1c1ccccc1` (racemic) [tranylcypromine], the IC50 against CYP2A6 was determined as 70 nM; at CYP2B6, 5900 nM.
